Data on two compounds can be found in US8658677B2, “Pyridyl-2-methylamino compounds, compositions and uses thereof” (Aria Neurosciences Inc., priority 2011, dated 2014).

“Also recorded” adds a separate entry of the source. Like-named read-outs stand apart in the source and are kept apart here.

Data set [1] has as its system Aβ40. The data set is described as follows: Secretion of Aβ40 by 751APPSW CHO cells (sandwich ELISA). It is filed as cell-based. The conditions noted are these: 48 hr; for Emax: read-out: EMAX of Aβ40 production inhibition; for IC50: read-out: IC50% of Aβ40 production. The method, then:
In addition to studying the effect of ARN4261 and ARN2966 on Aβ oligomerization and fibrillization, we have explored their properties in respect to the modulation of Aβ production using CHO clones stably transfected with WT human APP751 and double Swedish APP751 mutant (KM670/671NL). The results in FIGS. 3(A) and 3(B) show inhibitory effect of ARN4261 and ARN2966 on secretion of Aβ40 and Aβ42 by 751APPSW CHO cells exposed to ARN compounds for 48 hr. Values are expressed as % of Aβ40 and Aβ42 levels in conditioned media (CM) of untreated cells. FIG. 3(C) Concentrations of Aβ40 and Aβ42 in 751APPSWCHO cell CM under increasing concentrations of ARN2966. 751APPSWCHO cells secrete Aβ40 and Aβ42 in proportions 9:1, akin to the proportions of Aβ peptides produced by neurons. […] Aβ40 and Aβ42 levels were determined using sandwich ELISA where C-terminal specific anti Aβ40 and Aβ42 mAbs were used as capture Abs and biotinylated 4G8 as the detection Ab. […] We also confirmed that ARN2966 inhibited secretion of Aβ by primary neuronal cultures derived from Tg2576 AD Tg mice.
(An ELISA detects its analyte on a solid surface through an enzyme-linked reagent.)

The subject of another data set is APP mRNA. The data set is described as follows: APP mRNA level in 751APPSW CHO cells. It is filed as cell-based, human. The method, then: (§1) D. APP was immunoprecipitated with 22C11 mAb against its N-terminus. Representative radiographs (B) and densitometric results averaged from three independent experiments are shown (A). […] Two sets of experiments were conducted using either actin or GAPDH as housekeeping genes.

Another data set deals with APP. Description: 35S-Methionine pulse labeling of APP in 751APPSW CHO cells. It is filed as cell-based, human. Here is the method: as §1
A short description of another data set: Log P. It is filed as physicochemical.
Data set [2] relates to SK-N-SH human neuroblastoma cells. The data set is described as follows: Toxicity by MTT cell viability and LDH release assays. It is filed as cell-based. The method, then:
The effect of 0.01-100 μmol/L concentrations of investigational compounds was tested on the viability of the N2a murine neuroblastoma cell line (American Type Culture Collection, Manassas, Va.). N2a cells were grown in Eagle's minimal essential medium with the addition of 10% fetal bovine serum, streptomycin and gentomycin (Sigma, St. Louis, Mo.), harvested with 2% trypsin and plated at 10,000 cells/100 μL per well in flatbottom, 96-well microtiter plates. The cells were allowed to attach to the plate overnight in an incubator (37° C., 5% CO2) and in the following morning stocks of investigational compounds (50 mmol/L stock diluted in DMSO) were added to cells to achieve the final concentration 0.01-100 μmol/L. Adequate amounts of DMSO (Dimethyl sulfoxide, Sigma, St. Louis, Mo.) were added to control cells. Cells were grown in the presence of investigational compounds for 48 h and then their viability was assessed using a metabolic assay, which is based on cleavage of the yellow tetrazolium salt (MTT) to purple formazan crystals by viable cells. The MTT assay (Roche Molecular Biochemicals, Indianapolis, Ind.) was performed according to the manufacturer's instructions. The results from cell culture neurotoxicity studies were evaluated by one-way analysis of variance, followed by a Dunnett's test as a post hoc analysis.
As shown in FIG. 2 (MTT assay), the compounds were tested for toxicity in SK-N-SH human neuroblastoma cells using MTT cell viability and LDH release (membrane integrity) assays.
(In general: LDH leaks from cells whose membrane has failed.)

Data set [3] in a line: Pharmacokinetic characterization including BBB permeability. The data set is classed as in vivo, CD-1 WT mice. The conditions noted are these: for Brain Cmax / Cmax: mean ±SD; for F (fraction dose absorbed): accounted for po and iv dose difference; for half-life: read-out: Plasma t1/2 (converted). Here is the method:
Pharmacokinetic characterization including BBB permeability of ARN2966 was performed in three months old, male CD-1 WT mice, which received a single oral (po; 25 mg/kg) or intravenous (iv; 5 mg/kg) dose of ARN2966 and were sacrificed 0.25, 0.5, 1, 2, 8, and 24 hr later (n=3 per time point). Plasma and brain concentration of ARN2966 were determined using liquid chromatography-mass spectrometry (LC/MS) (Table I). […] 64.2% of its orally administered dose was absorbed from the alimentary tract. […] This is because of the instability of —CH═N— bond. Therefore, we focused on PK/BBB permeability characterization of ARN2966, where —CH═N— bond was reduced to —CH2—NH—.

Data set [4] deals with T1, Aβ40 (Homo sapiens, UniProt P05067).
T1 construct: host or cells: chemical solid-phase peptide synthesis (no expression host)
The data set is described as follows: Oligomerization assay. The data set is classed as biochemical. Here is the method:
[…] monomerized synthetic Aβ40 was incubated in 0.1M Tris pH 7.0, T=37° C. for 8 days in the presence of 0-100 μM concentration of compounds. […] An arrow indicates Aβ monomers clustered in ill developed protofibril. (C) Oligomerization assay. ARN4261 and ARN4224 reduced the amount of Aβ oligomers by 78% and 74%, respectively p<0.001. A compound 69b (GKLVFNmgA) was used as a positive control. 69b is homologous to Aβ sequence 17-21 and contains N-methyl glycine (Nmg), which renders it capable of anti-fibrillization and anti-oligomerization effect. (D) Principle of oligomerization assay. 100 μM Aβ40 was aggregated alone or with the addition of 10 μM of tested compounds [1:10 compound: Ab ratio] for 24 h in conditions promoting oligomers assembly, i.e., DMEM/F-12 medium+0.2% SDS, T=4° C. Prior to SDS-PAGE in non-reducing conditions samples were treated with glutaraldehyde. A strong smear of Aβ oligomers is seen between 37 and 70 KDa markers (arrows) in lane 2, and a dense band below the 25 KDa marker reflects Aβ monomers non-dissociated by 10% polyacrylamide gel. No oligomers above 37 KDa marker are seen in lane 1 containing only Aβ monomers run as a control. […] (E) TEM of Aβ oligomers. […] Yellow arrowhead indicates smaller oligomers.

A short description of data set [5]: Analysis of chemical structure stability. It is filed as physicochemical. An excerpt:
This is because of the instability of —C═N— bond. Therefore we have synthesized a reduced version of ARN4261dubbed ARN2966 (2-[(pyridine-2-ylmethyl)-amino]-phenol, MW 200.2 Da, Log P 1.96).

Where [6] appears, read: male, CD-1, mouse, plasma, IV - 5 mg/kg, mice.
[7] abbreviates: male, CD-1, mouse, plasma, PO - 25 mg/kg, mice.

T1 sequence (P05067 672-711): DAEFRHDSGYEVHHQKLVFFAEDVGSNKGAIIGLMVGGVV

A word on the Emax: it is the greatest response seen or fitted, relative to the assay's reference. The IC50 is the midpoint of a concentration-inhibition curve. As usually defined, the logP is the decadic logarithm of the partition coefficient of the neutral form, usually between octanol and water. Broadly, the Tmax is the time from dosing to the highest level. The AUC(0-inf) is total exposure, with the tail of the curve extrapolated. One may read the clearance as a measure of how efficiently the substance is removed, as volume per time. The low end stands for a low capacity for elimination, the high end for a high capacity for elimination. The Cmax is the peak of the concentration-time curve. As to `Oc1ccccc1NCc1ccccn1` [ARN2966, 2-[(pyridine-2-ylmethyl)-amino]-phenol], the Emax with Aβ40 [1] came out at 97 ± 0.3%. Further, the IC50 with Aβ40 [1] stood at 810 nM. In the data set with APP mRNA, the “APP mRNA level” value is reported as “No change; also recorded: lack of substantial effect”. Also, the “reduction of translation of APP” value in the data set with APP (25 μM, 2 h 35S-Methionine pulse) turned out to be 61.5%. Moreover, the “incorporation of 35S-Methionine by APP during translation” value with APP (751APPSW CHO cells) is “significantly reduced incorporation of 35S-Methionine by APP”. In the data set with APP (751APPSW CHO cells), the “translation of β-actin” value is on record as “remained unaltered”. Further, in the data set “Log P”, the logP stood at 1.96. The toxicity result in data set [2] (test not specified) was “not toxic”. Further, the “Brain Cmax” value in data set [3] (IV - 5 mg/kg, mice, 5 mg/kg) was 21.4 µg/kg; in data set [3] (IV - 5 mg/kg, mice, listed as ARN 2966, 5 mg/kg) it was 21.4 ± 2.7 µg/kg; in data set [3] (PO - 25 mg/kg, mice), 12.5 ± 2.3 µg/kg. Moreover, the “F (fraction dose absorbed)” value in data set [3] (PO - 25 mg/kg, 25 mg/kg) turned out to be 64.2%; in data set [3] (PO - 25 mg/kg, listed as ARN 2966, 25 mg/kg), 64.20%. The compound also had a maximal brain concentration in data set [3] (after iv dosing, 5 mg/kg) of 0.11 µM. The Tmax in data set [3] (male, CD-1, mouse, brain, IV - 5 mg/kg, mice, read-out: Brain Tmax) came to 15 min; in data set [3] (male, CD-1, mouse, brain, PO - 25 mg/kg, mice, read-out: Brain Tmax), 30 min; in data set [3] (male, CD-1, mouse, plasma, IV - 5 mg/kg, mice, read-out: Plasma Tmax), 15 min; in data set [3] (male, CD-1, mouse, plasma, PO - 25 mg/kg, mice, read-out: Plasma Tmax), 30 min. The AUC(0-inf) in data set [3] (setting [6]) was determined as 1230 ng·h/mL; in data set [3] (setting [7]), 3950 ng·h/mL. The same compound gave a clearance in data set [3] (setting [6]) of 67.8 mL/min/kg. In addition, the Cmax in data set [3] (setting [6]) amounted to 1030 ± 440 ng/mL; in data set [3] (setting [7]) it was 2660 ± 382 ng/mL. The half-life is 368 min in data set [3] (setting [6]) and 215 min in data set [3] (setting [7]). For the same compound, the Vd in data set [3] (male, CD-1, mouse, plasma, IV - 5 mg/kg, mice, read-out: Vz) was determined as 36 L/kg.

`Oc1ccccc1N=Cc1ccccn1` [ARN4261, 2-(Pyridin-2-ylmethyleneamino)-phenol]: in the data set on Aβ40 [1], the Emax came to 97.4 ± 0.25% and the IC50 is 820 nM. For the same compound, on Aβ40 [4], the “TEM of Aβ oligomers” value was “increased number of Aβ monomers and dimers”. For the same compound, at Aβ40 [4] (100 μM Aβ40, 10 μM compound, 24 h, DMEM/F-12 + 0.2% SDS, 4° C.), the “reduction of the amount of Aβ oligomers” value came out at 78%. Further, the “amount of oligomers on SDS-PAGE” value at Aβ40 [4] (100 μM Aβ40, 10 μM compound, 24 h, lanes 3-5) is “reduced amount of oligomers”. In addition, in the data set with APP mRNA, the “APP mRNA level” value is listed as “lack of substantial effect”. For the same compound, the chemical structure stability entry in data set [5] is recorded as “prone to self-decomposing”. For the same compound, in data set [5] (acidic pH), the “stability in acidic pH” value is on record as “easily degradable in acidic pH”. In addition, the toxicity entry in data set [2] (0.1-100 μM) is reported as “no toxicity”.
